# Results from patent US20190059375A1, “SYNERGISTIC FUNGICIDAL COMPOSITION FOR CONTROLLING PLANT DISEASES” (Sumitomo Chemical Company, Limited, priority 2016, published 2019).
# Legend:
# [1] = system: Septoria leaf blotch (Mycosphaerella graminicola); assay: Test Example 3: growth of Septoria leaf blotch in YBG medium, microtiter plate, absorbance at 550 nm; assay type: cell-based; conditions: single use, concentration in medium 0.005 ppm; 18° C., four days
# Description: Each of the present compound 1 or the present compound 2 was dissolved into dimethyl sulfoxide such that each concentration of these compounds was adjusted to one hundred fifty times as much as the concentration indicated in the below-mentioned Table 2. The resultant agent solution was dispensed into each microtiter plate (with 96 wells) in 1 μl portion thereof per well. […] The plate was cultivated at 18° C. for four days, thereby allowing Septoria leaf blotch (Mycosphaerella graminicola) to undergo proliferation, and the absorbance at 550 nm of each well of the microtiter plate was then measured to examine a degree of growth of Septoria leaf blotch (hereinafter referred to as “treated group”).
# Whereas, Septoria leaf blotch was proliferated similarly to the case of the treated group except that dimethyl sulfoxide was used instead of the agent solution, and the degree of the growth was examined (hereinafter referred to as “untreated group”). The efficacy was calculated from each of the obtained degree of growth of the treated group and the untreated group respectively by the following “Equation 1”. […]
# [2] = system: Brown rust (Puccinia recondita); assay: Test Example 4: foliar spray on wheat, Brown rust lesion area; assay type: in vivo, Puccinia recondita on wheat (cultivar. Shirogane); conditions: single use, foliar spray one day before inoculation, lesion area after ten days
# Description: Five (5) parts of the present compound 1, 35 parts of a mixture of white carbon and ammonium polyoxyethylene alkyl ether sulfate (the weight ratio of 1:1) and […] of water were mixed, and the mixture was then finely-ground by a wet grinding method to obtain a flowable comprising the present compound 1. Separately, the flowable comprising the present compound 2 was prepared according to the above-mentioned similar method except that the present compound 2 was used instead of the present compound 1.
# Each of the flowable comprising the present compound 1 and the flowable comprising the present compound 2 was diluted with water and if necessary, the resultant dilute solutions were mixed each other such that each concentration of the respective compounds in the dilution solution was adjusted to the concentration indicated in Table 3, to prepare the dilution solutions, respectively.
# A plastic pot was filled with soil, and thereto wheat (cultivar. Shirogane) was seeded, and the plants were grown in a greenhouse for ten days. The above-mentioned dilution solutions were sprayed to foliar parts so as to adhere adequately onto the surfaces of leaves of the above wheats. After spraying the dilute solution, the plants were air-dried, and one day after the application, an aqueous suspension of uredospores of Brown rust (Puccinia recondita) was inoculated by spraying thereto. After the inoculation, the plants were placed at 27° C. under humid condition for one day, and were then cultivated under lighting for ten days, and a lesion area was examined (hereinafter referred to as “lesion area of treated group”).
# Whereas, wheats were cultivated similarly to the treated group except that no foliage application of the above-mentioned agent solution was done, and Brown rust were inoculated, and the lesion area thereof was examined (hereinafter referred to as “lesion area of the untreated group”).
# From each of the lesion area of the treated group and the untreated group, respectively, the efficacy of the treated group was calculated by the following Equation 2. […]
SMILES,Efficacy (%) [1] [%],Efficacy (%) ([2]; concentration in agent solution 0.0001 ppm),Efficacy (%) ([2]; concentration in agent solution 0.01 ppm),Efficacy (%) ([2]; concentration in agent solution 0.001 ppm)
CNC(=O)C(OC)c1ccccc1COc1cc(C)ccc1C (stereo not shown) [Present compound 1],20,22,46,
CC1CC(C)(C)c2c(F)ccc(NC(=O)c3cn(C)nc3C(F)F)c21 (stereo not shown) [Present compound 2],,,,15
